Common to all, as to test: Ellman assay, […] nm, head homogenate
What all share (type): biochemical, Haematobia irritans

For assay [1], the target named is T1, acetylcholinesterase (AChE), Labelle field population.
T1 construct: gene Ace; native enzyme in homogenate of five pooled fly heads
Particulars: 0.4 mM acetylthiocholine, pH 7.8 phosphate, 25 °C, 10 min preincubation; covalent.

Assay [2] deals with T2, acetylcholinesterase (AChE), BTU field population.
T2 construct: gene Ace; native enzyme in homogenate of five pooled fly heads; mixed genotypes, G262A in a small part of the flies, other mutations not screened
Particulars: 0.4 mM acetylthiocholine, pH 7.8 phosphate, 25 °C, 10 min preincubation; covalent.

The target of assay [3] is T3, acetylcholinesterase (AChE), Kerrville susceptible strain.
T3 construct: gene Ace; not purified; G262A absent in this strain
Particulars: 0.4 mM acetylthiocholine, pH 7.8 phosphate, 25 °C, 10 min preincubation; covalent.

In assay [4] the target is T4, acetylcholinesterase (AChE), Ona field population.
T4 construct: gene Ace; native enzyme in homogenate of five pooled fly heads; mixed genotypes, G262A in a small part of the flies, other mutations not screened
Particulars: 0.4 mM acetylthiocholine, pH 7.8 phosphate, 25 °C, 10 min preincubation; covalent; stated gain.

Each structure is given as a SMILES string.

With `CCOP(=O)(OCC)Oc1cc(C)nc(C(C)C)n1` [diazoxon], the half-maximal inhibitory concentration (IC50) in assay [1] turned out to be 9.2 nM; in assay [2], 6.1 nM; in assay [3] it was 8.2 nM; in assay [4], 20.5 nM.

The values are drawn from publication PMC6023543, “Resistance to Permethrin, β-cyfluthrin, and Diazinon in Florida Horn Fly Populations” (Insects, 2018).
